Literature values, collected in US20160045407A1, “DENTRIFICE WITH INCREMENTAL CHEMISTRIES” (The Procter & Gamble Company, priority 2014, published 2016).

conditions: concentration level where the cooling effect can be clearly recognized

| Compound | cooling threshold |
| --- | --- |
| CC(C)[C@@H]1CC[C@@H](C)C[C@@H]1O [1-neomenthol] | about 3,000 ppb |
| CC(C)[C@@H]1CC[C@@H](C)C[C@H]1O [L-menthol] | about 800 ppb |
| CC(C)[C@@H]1CC[C@@H](C)C[C@@H]1O [d-neomenthol] | about 25,000 ppb |
